Laboratory results reported in patent US6417375B1, “Furylphosphines and organometallic complexes containing them” (Rhodia Fiber & Resin Intermediates, priority 1998, dated 2002).

Experiment: Solubility of the furylphosphine in water

Compound	solubility (23 °C)	also measured
O=C([O-])c1ccc(P(c2ccccc2)c2ccccc2)o1.[Na+] [Example 1, sodium 2-(diphenylphosphino)furan-5-carboxylate]	250 mg/mL	
O=P([O-])([O-])c1ccc(P(c2ccccc2)c2ccccc2)o1.[Na+].[Na+] [Example 2, disodium 2-(diphenylphosphino)furan-5-phosphonate]		solubility (20 °C): 680 mg/mL
O=P(O)(O)c1ccc(P(c2ccccc2)c2ccc(P(=O)(O)O)o2)o1 [Example 3, tetrasodium 2,2′-phenylphosphine-diylbis(furan-5-phosphonate)]	1140 mg/mL	
O=S([O-])c1ccc(P(c2ccccc2)c2ccccc2)o1.[Na+] [Example 4, sodium 2-(diphenylphosphino)furan-5-sulphinate]		solubility (21 °C): 205 mg/mL
